Test: method code SF-HPLC, from DOI: 10.1002/qsar.200860138
Details: pH 3.0

SMILES | logD
COc1ccc(C(=O)c2cc(C(=O)c3ccc(OC)cc3)n(CC(=O)O)c2)cc1 | 3.15
O=C(O)Cn1ccc(-c2nc3ccccc3s2)c1 | 2.22
O=C(O)Cn1ccc(C(=O)c2ccc(Cl)cc2)c1 | 1.95
Cc1ccc(C(=O)c2ccn(CC(=O)O)c2)cc1 | 1.27
O=C(O)Cn1cc(C(=O)c2ccccc2)cc1C(=O)c1ccccc1 | 2.12
COc1ccc(C(=O)c2ccn(CC(=O)O)c2)cc1 | 1.57
O=C(O)Cc1ccc(C(=O)c2ccccc2)[nH]1 | 1.87
COc1ccc(C(=O)c2cccn2CC(=O)O)cc1 | 1.65
O=C(O)Cn1ccc(C(=O)c2ccc3ccccc3c2)c1 | 2.27
O=C(O)Cn1ccc(C(=O)c2ccc([N+](=O)[O-])cc2)c1 | 0.93
O=C(O)Cn1ccc(C(=O)c2ccc(C(F)(F)F)cc2)c1 | 2
O=C(O)Cn1cc(C(=O)c2ccccc2)c2ccccc21 | 2.57

Source: the SangsterLogP compilation
